Measured values published in US5214038A, “1-(pyrido[3,4-b]-1,4-oxazinyl-4-yl)-1H-indoles and intermediates for the preparation thereof” (priority 1991, dated 1993).
Read-outs that look alike come from different tables or passages of the source.

How the values were obtained:
[1] = biological target: T1, Brain AChE (acetylcholinesterase, rat striatum) (Rattus norvegicus, UniProt P37136); experiment: biochemical; conditions: rat striatum homogenate; 5 mM acetylthiocholine; pH 7.2; 10 min preincubation at 37° C.; read-out: Inhibitory Concentration, Brain AChE
T1 construct: corpora striata dissected free, weighed and homogenized in 19 volumes; from tissue; host or cells: corpora striata of male Wistar rats, crude homogenate
T1 sequence (P37136 32-614): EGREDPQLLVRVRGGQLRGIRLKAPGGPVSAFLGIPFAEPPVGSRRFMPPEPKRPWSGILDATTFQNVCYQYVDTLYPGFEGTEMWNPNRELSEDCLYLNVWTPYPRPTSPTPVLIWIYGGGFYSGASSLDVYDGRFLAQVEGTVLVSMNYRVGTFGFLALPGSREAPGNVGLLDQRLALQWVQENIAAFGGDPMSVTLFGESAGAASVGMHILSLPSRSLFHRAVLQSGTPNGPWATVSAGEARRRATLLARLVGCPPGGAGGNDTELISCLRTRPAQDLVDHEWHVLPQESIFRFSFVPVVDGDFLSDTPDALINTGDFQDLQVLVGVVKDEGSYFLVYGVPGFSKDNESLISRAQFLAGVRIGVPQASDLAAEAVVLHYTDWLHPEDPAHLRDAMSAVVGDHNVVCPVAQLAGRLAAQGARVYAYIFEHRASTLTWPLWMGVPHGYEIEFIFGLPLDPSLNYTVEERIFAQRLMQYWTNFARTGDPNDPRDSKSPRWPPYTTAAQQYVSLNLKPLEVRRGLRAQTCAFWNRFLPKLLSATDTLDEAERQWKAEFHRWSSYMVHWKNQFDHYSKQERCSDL
Description: Cholinesterases are found throughout the body, both in the brain and in serum. However, only brain acetylcholinesterase (AChE) distribution is correlated with central cholinergic innervation. […] We have determined in vitro inhibition of acetylcholinesterase activity in rat striatum according to the method described below.
In Vitro Inhibition of Acetylcholinesterase Activity in Rat Striatum
The method described below was used in this invention for assaying anticholinesterase activity. This is a modification of the method of Ellman et al., Biochem. Pharmacol. 7, 88 (1961).
1. 0.05M Phosphate buffer, pH 7.2
(a) 6.85 g NaH2 PO4 .cndot.H2 O/100 ml distilled H2 O
(c) add (a) to (b) until pH reaches 7.2
4. A 2 mM stock solution of the test drug is made up in a suitable solvent and q.s. to volume with 0.5 mM DTNB (reagent 3). Drugs are serially diluted (1:10) such that the final concentration (in cuvette) is 10^-4 M and screened for activity. If active, IC50 values are determined from the inhibitory activity of subsequent concentrations.
Enzyme activity is measured with the Beckman DU-50 spectrophotometer. This method can be used for IC50 determinations and for measuring kinetic constants.
This program also calculates the rate of absorbance change for each cuvette.
Substrate concentration is 10 mM diluted 1:2 in assay yielding final concentration of 5 mM.

[2] = tested on: Scopolamine Induced Memory Deficit; type: in vivo, mice
Experimental: In this assay mice are tested for their ability to remember an unpleasant stimulus for a period of 24 hours. A mouse is placed in a chamber that contains a dark compartment; a strong incandescent light drives it to the dark compartment, where an electric shock is administered through metal plates on the floor. The animal is removed from the testing apparatus and tested again, 24 hours later, for the ability to remember the electric shock.
If scopolamine, an anticholinergic that is known to cause memory impairment, is administered before an animal's initial exposure to the test chamber, the animal re-enters the dark compartment shortly after being placed in the test chamber 24 hours later. This effect of scopolamine is blocked by an active test compound, resulting in a greater interval before-re-entry into the dark compartment.
The results for an active compound are expressed as the percent of a group of animals in which the effect of scopolamine is blocked, as manifested by an increased interval between being placed in the test chamber and re-entering the dark compartment.
Results of this assay for some of the compounds of this invention and those for tacrine and pilocarpine (reference compounds) are presented in Table 2.

norepinephrine uptake = experiment: 3H-Norepinephrine Uptake in Rat Whole Brain Synaptosomes; type: biochemical; conditions: 50 nM 3H-NE, 37° C., 5 minutes, read-out: IC50 (3H-norepinephrine uptake inhibition)
Experimental: ^3 H-Norepinephrine Uptake in Rat Whole Brain Synaptosomes
This assay is used as a biochemical screen for compounds that enhance adrenergic mechanism by blocking norepinephrine uptake.
A. Animals: Male CR Wistar rats (100-125 g).
1. Krebs-Henseleit Bicarbonate Buffer, pH 7.4 (KHBB). Make a 1 liter batch, containing the following salts.
2. 0.32M Sucrose: 21.9 g of sucrose, Q.S. to 200 ml.
3. A 0.1 mM stock solution of L(-)-Norepinephrine bitartrate is made up in 0.01N HCl. This is used to dilute the specific activity of radiolabeled NE.
4. Levo-[Ring-2,5,6-^3 H]-Norepinephrine (40-50 Ci/mmol) is obtained from New England Nuclear. The final desired concentration of ^3 H-NE in the assay is 50 nM. The dilution factor is 0.8; therefore the KHBB is made up to contain 62.5 nM [^3 H]-NE. Add to 100 ml of KHBB:
5. For most assays, a 1 mM stock solution of the test compound is made up in suitable solvent and serially diluted such that the final concentration in the assay ranges from 2×10^-8 to 2×10^-5 M. Seven concentrations are used for each assay. Higher or lower concentrations may be used depending on the potency of the test compound.
Male Wistar rats are decapitated and brains rapidly removed. Either whole brain minus cerebella or hypothalamus is weighed and homogenized in 9 volumes of ice-cold 0.32M sucrose using a Potter-Elvejhem homogenizer. Homogenization should be done with 4-5 up and down strokes at medium speeds to minimize synaptosome lysis. The homogenate is centrifuged at 1000 g for 10 min at 0°-4° C. The supernatant (S1) is decanted and is used for uptake experiments.
800 μl: KHBB containing [^3 H]-NE
20 μl: Vehicle or appropriate drug concentration
200 μl: Tissue suspension
Tubes are incubated at 37° C. under a 95% O2 /5% CO2 atmosphere for 5 minutes. For each assay, 3 tubes are incubated with 20 μl of vehicle at 0° C. in an ice bath. After incubation all tubes are immediately centrifuged at 4000 g for 10 minutes. […] The tubes are vigorously vortexed, decanted into scintillation vials, and counted in 10 ml of Liquiscint scintillation counting cocktail. […]

CNC(=O)Oc1ccc2c(ccn2N2CCOc3cnccc32)c1 [1-(Pyrido-[3,4-b]-1,4-oxazin-4-yl)-1H-indol'-5-yl methylcarbamate] was tested. Which IC50 [1] did it give?
Its IC50 is 0.054 µM.

And the “% of Animals with Scopolamine Induced Memory Deficit Reversal” value (shortened to “% of Animals”) ([2]; mice, 0.01 mg/kg of body weight, s.c., retest 24 hours)?
Its value is 27%.

And the “% of Animals” value ([2]; mice, 0.03 mg/kg of body weight, s.c., retest 24 hours)?
Its value is 20%.

And the “% of Animals” value ([2]; mice, 0.10 mg/kg of body weight, s.c., retest 24 hours)?
Its value is 33%.

With Cc1cn(N2CCOc3cnccc32)c2ccccc12 [4-(3-Methyl-1H-indol-1-yl)-pyrido[3,4-b]-1,4-oxazine] as the compound, how does the IC50 (norepinephrine uptake) read?
Its IC50 is 6 µM.

How did the IC50 (norepinephrine uptake) turn out when CN(C)CCC=C1c2ccccc2CCc2ccccc21 [Amitriptyline] was run?
The IC50 was 7.7 µM.

With CNCCC=C1c2ccccc2CCc2ccccc21 [Nortriptyline] as the compound, how does the IC50 (norepinephrine uptake) read?
The IC50 was 4 µM.

CC[C@@H]1C(=O)OC[C@@H]1Cc1cncn1C [Pilocarpine, reference compound] was tested. Which “% of Animals” value ([2]; mice, 5.0 mg/kg of body weight, s.c., retest 24 hours) did it give?
The value was 13%.

Nc1c2c(nc3ccccc13)CCCC2 [Tacrine, reference compound] was tested. Which “% of Animals” value ([2]; mouse, in vivo, sc, 0.63 mg/kg) did it give?
Its value is 13%.
